Assay results reported in ChEMBL document CHEMBL4028801, “A multifactorial approach to hepatobiliary transporter assessment enables improved therapeutic compound development” (Toxicol Sci, 2013).
Positions of bridges follow the written chain, without caps; N, C: chain ends. Non-standard residues stand in square brackets, D forms with d. Residues, ends and D or L forms follow the SMILES beside them. hArg = N=C(N)NCCCC[C@H](N)C(=O)O; Mpa = O=C(O)CCS

Tests used:
Bile salt export pump = Bile salt export pump (Homo sapiens, UniProt O95342); assay: Inhibition of human BSEP overexpressed in Sf9 cell membrane vesicles assessed as uptake of [3H]-taurocholate in presence of ATP measured after 15 to 20 mins by membrane vesicle transport assay; assay type: ADME, cell-based
Sequence of Bile salt export pump (O95342 whole entry): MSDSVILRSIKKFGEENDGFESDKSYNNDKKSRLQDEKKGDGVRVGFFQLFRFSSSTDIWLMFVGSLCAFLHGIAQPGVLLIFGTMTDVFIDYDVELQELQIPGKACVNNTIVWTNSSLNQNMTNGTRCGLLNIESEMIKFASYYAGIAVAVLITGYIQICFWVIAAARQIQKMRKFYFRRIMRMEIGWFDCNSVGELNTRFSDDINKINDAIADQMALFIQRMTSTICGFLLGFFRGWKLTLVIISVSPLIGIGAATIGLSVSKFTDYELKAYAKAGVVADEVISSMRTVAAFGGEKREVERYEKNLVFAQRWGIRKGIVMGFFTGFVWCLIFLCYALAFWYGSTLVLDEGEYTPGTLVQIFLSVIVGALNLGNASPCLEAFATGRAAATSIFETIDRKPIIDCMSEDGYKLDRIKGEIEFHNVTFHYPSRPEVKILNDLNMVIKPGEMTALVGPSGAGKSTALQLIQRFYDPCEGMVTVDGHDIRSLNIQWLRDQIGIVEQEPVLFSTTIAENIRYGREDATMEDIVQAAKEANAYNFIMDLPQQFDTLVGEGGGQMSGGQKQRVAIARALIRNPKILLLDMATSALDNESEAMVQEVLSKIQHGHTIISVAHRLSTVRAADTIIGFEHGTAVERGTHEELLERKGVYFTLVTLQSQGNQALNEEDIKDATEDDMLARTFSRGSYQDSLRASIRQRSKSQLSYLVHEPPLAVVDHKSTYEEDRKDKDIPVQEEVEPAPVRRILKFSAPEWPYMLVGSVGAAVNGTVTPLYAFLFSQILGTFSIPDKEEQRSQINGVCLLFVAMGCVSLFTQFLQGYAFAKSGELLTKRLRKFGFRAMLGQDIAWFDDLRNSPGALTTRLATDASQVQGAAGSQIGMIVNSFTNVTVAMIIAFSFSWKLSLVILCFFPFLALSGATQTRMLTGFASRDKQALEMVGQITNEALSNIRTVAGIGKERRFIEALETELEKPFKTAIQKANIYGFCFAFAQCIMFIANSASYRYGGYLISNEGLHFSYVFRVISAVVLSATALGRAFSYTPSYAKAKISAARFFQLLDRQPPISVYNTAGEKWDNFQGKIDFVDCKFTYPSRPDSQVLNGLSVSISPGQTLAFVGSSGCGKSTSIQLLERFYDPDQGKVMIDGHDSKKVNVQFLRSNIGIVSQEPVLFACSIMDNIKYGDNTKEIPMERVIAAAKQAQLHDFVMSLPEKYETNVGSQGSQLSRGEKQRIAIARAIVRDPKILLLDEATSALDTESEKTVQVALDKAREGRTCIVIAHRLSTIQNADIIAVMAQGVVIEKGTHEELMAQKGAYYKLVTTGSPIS

[1] = target: ATP-binding cassette sub-family C member 2 (Homo sapiens, UniProt Q92887); assay: Inhibition of human MRP2 overexpressed in Sf9 cell membrane vesicles assessed as uptake of [3H]-estradiol-17beta-D-glucuronide in presence of ATP and GSH measured after 20 mins by membrane vesicle transport assay
Sequence of ATP-binding cassette sub-family C member 2 (Q92887 whole entry): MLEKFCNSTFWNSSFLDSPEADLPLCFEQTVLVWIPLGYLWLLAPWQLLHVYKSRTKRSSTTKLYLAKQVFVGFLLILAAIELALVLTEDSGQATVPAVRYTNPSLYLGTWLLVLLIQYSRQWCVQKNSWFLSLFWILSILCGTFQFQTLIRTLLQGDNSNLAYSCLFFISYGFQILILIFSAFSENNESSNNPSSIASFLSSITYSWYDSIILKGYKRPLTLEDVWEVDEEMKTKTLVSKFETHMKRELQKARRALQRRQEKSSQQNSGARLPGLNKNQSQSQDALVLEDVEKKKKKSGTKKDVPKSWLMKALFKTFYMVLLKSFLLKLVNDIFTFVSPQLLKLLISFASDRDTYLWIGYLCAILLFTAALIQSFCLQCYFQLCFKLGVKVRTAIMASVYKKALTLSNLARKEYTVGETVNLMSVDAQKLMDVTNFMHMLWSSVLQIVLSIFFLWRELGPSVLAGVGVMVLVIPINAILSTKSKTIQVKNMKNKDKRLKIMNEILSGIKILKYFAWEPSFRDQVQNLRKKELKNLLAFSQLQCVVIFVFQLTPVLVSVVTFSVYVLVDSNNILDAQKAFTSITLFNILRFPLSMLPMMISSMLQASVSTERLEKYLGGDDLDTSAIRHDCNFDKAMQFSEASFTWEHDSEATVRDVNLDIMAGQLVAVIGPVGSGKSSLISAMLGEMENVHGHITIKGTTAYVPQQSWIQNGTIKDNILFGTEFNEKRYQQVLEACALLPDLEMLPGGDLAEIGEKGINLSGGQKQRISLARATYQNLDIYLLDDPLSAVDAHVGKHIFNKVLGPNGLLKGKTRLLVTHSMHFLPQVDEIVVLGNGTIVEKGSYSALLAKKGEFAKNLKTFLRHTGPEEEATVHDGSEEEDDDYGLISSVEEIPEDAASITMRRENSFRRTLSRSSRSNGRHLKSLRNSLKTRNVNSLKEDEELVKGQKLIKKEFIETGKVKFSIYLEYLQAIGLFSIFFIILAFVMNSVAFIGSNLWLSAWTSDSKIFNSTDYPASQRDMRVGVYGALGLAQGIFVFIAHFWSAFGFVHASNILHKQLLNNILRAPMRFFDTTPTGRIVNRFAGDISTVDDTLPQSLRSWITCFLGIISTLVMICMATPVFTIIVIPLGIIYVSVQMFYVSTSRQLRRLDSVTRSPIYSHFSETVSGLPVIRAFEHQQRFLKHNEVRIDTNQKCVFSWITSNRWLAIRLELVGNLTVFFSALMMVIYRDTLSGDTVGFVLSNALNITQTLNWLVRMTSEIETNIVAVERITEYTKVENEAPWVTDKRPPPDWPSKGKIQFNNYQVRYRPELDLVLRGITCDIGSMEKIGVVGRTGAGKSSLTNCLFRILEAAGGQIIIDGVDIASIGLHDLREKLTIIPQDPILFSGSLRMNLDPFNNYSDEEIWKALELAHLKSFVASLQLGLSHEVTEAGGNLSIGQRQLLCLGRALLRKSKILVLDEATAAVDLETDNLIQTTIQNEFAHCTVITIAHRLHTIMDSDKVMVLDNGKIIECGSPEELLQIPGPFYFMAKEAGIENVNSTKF

[2] = target: ATP-binding cassette sub-family C member 3 (Homo sapiens, UniProt O15438); assay: Inhibition of human MRP3 overexpressed in Sf9 insect cell membrane vesicles assessed as uptake of [3H]-estradiol-17beta-D-glucuronide in presence of ATP and GSH measured after 10 mins by membrane vesicle transport assay; assay type: ADME, cell-based
Sequence of ATP-binding cassette sub-family C member 3 (O15438 whole entry): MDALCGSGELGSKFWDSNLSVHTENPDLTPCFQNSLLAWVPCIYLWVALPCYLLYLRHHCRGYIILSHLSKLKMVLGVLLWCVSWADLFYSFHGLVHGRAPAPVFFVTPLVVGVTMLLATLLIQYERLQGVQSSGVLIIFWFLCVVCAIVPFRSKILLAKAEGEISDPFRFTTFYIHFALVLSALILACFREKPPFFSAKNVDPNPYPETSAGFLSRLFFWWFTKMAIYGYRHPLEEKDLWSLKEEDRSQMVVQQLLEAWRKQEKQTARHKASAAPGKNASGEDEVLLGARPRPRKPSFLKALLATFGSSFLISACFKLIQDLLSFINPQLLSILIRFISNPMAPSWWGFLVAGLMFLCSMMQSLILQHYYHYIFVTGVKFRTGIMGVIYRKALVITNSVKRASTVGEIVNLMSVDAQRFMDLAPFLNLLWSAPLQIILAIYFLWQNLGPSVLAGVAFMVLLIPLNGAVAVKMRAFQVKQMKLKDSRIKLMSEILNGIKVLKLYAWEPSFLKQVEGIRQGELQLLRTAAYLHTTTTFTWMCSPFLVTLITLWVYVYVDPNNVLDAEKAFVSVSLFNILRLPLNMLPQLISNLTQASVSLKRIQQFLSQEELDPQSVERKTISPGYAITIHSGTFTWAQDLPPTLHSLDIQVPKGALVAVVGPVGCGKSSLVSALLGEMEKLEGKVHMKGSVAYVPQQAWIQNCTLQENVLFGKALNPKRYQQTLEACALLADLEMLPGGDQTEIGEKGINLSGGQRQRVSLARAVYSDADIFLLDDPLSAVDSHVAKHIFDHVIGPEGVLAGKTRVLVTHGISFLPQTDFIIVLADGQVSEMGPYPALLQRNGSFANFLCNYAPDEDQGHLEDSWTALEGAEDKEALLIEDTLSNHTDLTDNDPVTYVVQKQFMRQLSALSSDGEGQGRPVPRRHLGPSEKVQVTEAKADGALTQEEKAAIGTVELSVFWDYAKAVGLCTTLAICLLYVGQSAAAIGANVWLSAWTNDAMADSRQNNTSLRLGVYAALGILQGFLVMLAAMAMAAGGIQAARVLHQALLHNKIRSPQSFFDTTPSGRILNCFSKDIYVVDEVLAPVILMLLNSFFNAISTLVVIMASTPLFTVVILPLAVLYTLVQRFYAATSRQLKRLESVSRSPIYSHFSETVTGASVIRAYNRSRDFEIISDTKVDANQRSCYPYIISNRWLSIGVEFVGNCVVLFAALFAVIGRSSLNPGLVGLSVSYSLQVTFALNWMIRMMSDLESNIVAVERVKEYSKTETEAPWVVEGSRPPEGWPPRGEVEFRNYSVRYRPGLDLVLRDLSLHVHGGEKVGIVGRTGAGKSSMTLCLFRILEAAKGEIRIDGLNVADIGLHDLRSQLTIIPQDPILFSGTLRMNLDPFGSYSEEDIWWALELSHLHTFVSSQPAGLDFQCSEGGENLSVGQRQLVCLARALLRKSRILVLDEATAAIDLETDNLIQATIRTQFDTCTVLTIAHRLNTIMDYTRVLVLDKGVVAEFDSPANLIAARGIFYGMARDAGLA

[3] = target: T1, ATP-binding cassette sub-family C member 4 (Homo sapiens, UniProt O15439); assay: Inhibition of human MRP4 overexpressed in Sf9 cell membrane vesicles assessed as uptake of [3H]-estradiol-17beta-D-glucuronide in presence of ATP and GSH measured after 20 mins by membrane vesicle transport assay; assay type: ADME, cell-based
T1 sequence (O15439 whole entry): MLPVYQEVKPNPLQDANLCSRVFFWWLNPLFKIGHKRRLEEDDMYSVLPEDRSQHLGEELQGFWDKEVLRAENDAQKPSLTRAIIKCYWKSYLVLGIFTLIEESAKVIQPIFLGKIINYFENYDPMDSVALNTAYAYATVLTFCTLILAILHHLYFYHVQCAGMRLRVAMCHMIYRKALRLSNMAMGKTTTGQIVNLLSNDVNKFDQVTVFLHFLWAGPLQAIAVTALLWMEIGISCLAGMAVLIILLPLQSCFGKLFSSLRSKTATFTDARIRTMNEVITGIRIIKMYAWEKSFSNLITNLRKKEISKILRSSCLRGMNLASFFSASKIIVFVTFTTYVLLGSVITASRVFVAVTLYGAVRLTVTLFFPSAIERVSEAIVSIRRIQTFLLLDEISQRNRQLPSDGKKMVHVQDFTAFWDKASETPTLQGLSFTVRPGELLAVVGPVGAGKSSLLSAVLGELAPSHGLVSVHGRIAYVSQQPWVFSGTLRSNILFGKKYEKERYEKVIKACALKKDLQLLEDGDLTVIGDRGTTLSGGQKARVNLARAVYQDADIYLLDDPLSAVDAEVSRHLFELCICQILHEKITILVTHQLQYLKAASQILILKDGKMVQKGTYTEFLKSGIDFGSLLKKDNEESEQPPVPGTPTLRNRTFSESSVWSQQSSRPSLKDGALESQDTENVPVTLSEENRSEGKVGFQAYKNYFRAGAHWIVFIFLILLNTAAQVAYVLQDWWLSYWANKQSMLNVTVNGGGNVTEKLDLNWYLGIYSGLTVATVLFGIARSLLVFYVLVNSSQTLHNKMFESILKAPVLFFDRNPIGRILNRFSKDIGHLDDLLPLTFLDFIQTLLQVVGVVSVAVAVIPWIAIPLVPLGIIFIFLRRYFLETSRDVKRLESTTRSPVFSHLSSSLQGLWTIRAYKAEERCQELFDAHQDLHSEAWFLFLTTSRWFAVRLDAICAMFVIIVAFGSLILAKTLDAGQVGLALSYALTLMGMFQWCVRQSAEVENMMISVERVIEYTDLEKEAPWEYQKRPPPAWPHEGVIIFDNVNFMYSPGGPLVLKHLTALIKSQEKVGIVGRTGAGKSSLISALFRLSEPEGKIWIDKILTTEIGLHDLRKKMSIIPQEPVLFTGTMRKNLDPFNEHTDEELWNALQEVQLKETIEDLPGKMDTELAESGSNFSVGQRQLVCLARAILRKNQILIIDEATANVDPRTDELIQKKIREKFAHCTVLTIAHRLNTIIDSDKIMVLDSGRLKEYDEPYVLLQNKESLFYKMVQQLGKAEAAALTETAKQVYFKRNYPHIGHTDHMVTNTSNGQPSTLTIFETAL

Compound | IC50 (Bile salt export pump) | IC50 [1] | IC50 [2] | IC50 [3]
N=C(N)NCCCC[C@@H]1NC(=O)CCSSC[C@@H](C(N)=O)NC(=O)[C@@H]2CCCN2C(=O)[C@H](Cc2c[nH]c3ccccc23)NC(=O)[C@H](CC(=O)O)NC(=O)CNC1=O ([Mpa][hArg]GDWPC-NH2; disulfide 1-7) | > 133 µM | > 133 µM | > 133 µM | > 133 µM
CCOC(=O)c1ccc(N)cc1 [BENZOCAINE] | > 133 µM | > 133 µM | > 133 µM | > 133 µM
NNC(=O)c1ccncc1 [ISONIAZID] | > 133 µM | > 133 µM | > 133 µM | > 133 µM
O=C(O)Cc1ccc(-c2ccccc2)cc1 [FELBINAC] | > 133 µM | > 133 µM | > 133 µM | 8.2 µM
C#C[C@]1(O)C=C[C@H]2[C@@H]3CCC4=CC(=O)CC[C@@H]4[C@H]3CC[C@@]21CC [GESTODENE] | > 133 µM | > 133 µM | > 133 µM | > 133 µM
CCCSc1ccc2nc(NC(=O)OC)[nH]c2c1 [ALBENDAZOLE] | > 133 µM | > 133 µM | > 133 µM | > 133 µM
CC(=O)Oc1cccc2c1C(=O)c1c(OC(C)=O)cc(C(=O)O)cc1C2=O [DIACEREIN] | > 133 µM | > 133 µM | > 133 µM | 6.4 µM
COc1ccc2c3c1O[C@H]1C[C@@H](O)C=C[C@@]31CCN(C)C2 [GALANTAMINE] | > 133 µM | > 133 µM | > 133 µM | > 133 µM
CC[C@H]1CN2CCc3cc(OC)c(OC)cc3[C@@H]2C[C@@H]1C[C@H]1NCCc2cc(OC)c(OC)cc21 [EMETINE] | > 133 µM | > 133 µM | > 133 µM | > 133 µM
CC1(C)S[C@@H]2[C@H](NC(=O)[C@H](N)c3ccc(O)cc3)C(=O)N2[C@H]1C(=O)O [AMOXICILLIN] | > 133 µM | > 133 µM | > 133 µM | > 133 µM
CC[C@@]1(O)C(=O)OCc2c1cc1n(c2=O)Cc2cc3c([N+](=O)[O-])cccc3nc2-1 [RUBITECAN] | > 133 µM | 60.5 µM | 10.2 µM | 5.1 µM
CC(C)C(=O)Nc1ccc([N+](=O)[O-])c(C(F)(F)F)c1 [FLUTAMIDE] | > 133 µM | > 133 µM | > 133 µM | > 133 µM
Cc1ccnc2c1NC(=O)c1cccnc1N2C1CC1 [NEVIRAPINE] | > 133 µM | > 133 µM | > 133 µM | > 133 µM
Cc1ccc(S(=O)(=O)NC(=O)NN2CC3CCCC3C2)cc1 (centres undefined) [GLICLAZIDE] | > 133 µM | > 133 µM | > 133 µM | > 133 µM
CS(=O)(=O)Nc1ccc([N+](=O)[O-])cc1Oc1ccccc1 [NIMESULIDE] | > 133 µM | > 133 µM | > 133 µM | > 133 µM
CC1(C)[C@H](C(=O)O)N2C(=O)C[C@H]2S1(=O)=O [SULBACTAM] | > 133 µM | > 133 µM | > 133 µM | > 133 µM
CN1C(C(=O)Nc2ccccn2)=C(O)c2sccc2S1(=O)=O [TENOXICAM] | > 133 µM | > 133 µM | > 133 µM | > 133 µM
CC1CCN(CCCC(=O)c2ccc(F)cc2)CC1 [MELPERONE] | > 133 µM | > 133 µM | > 133 µM | > 133 µM
CN(C)C(=O)Oc1cccc([N+](C)(C)C)c1 [NEOSTIGMINE] | > 133 µM | > 133 µM | > 133 µM | > 133 µM
CO/N=C(\C(=O)N[C@@H]1C(=O)N2C(C(=O)O)=C(CSc3nc(=O)c(=O)[nH]n3C)CS[C@H]12)c1csc(N)n1 | > 133 µM | > 133 µM | > 133 µM | 35.6 µM
CC(=O)Oc1ccccc1C(=O)O [ASPIRIN] | > 133 µM | > 133 µM | > 133 µM | > 133 µM

Compound | IC50 (Bile salt export pump) | IC50 [1] | IC50 [2] | IC50 [3]
Nc1ncn([C@H]2C[C@H](O)[C@@H](CO)O2)c(=O)n1 [DECITABINE] | > 133 µM | > 133 µM | > 133 µM | > 133 µM
COc1ccc2cccc(CCNC(C)=O)c2c1 [AGOMELATINE] | > 133 µM | > 133 µM | > 133 µM | > 133 µM
CC(=O)OCC(=O)[C@@]1(O)[C@H](OC(C)=O)C[C@H]2[C@@H]3CCC4=CC(=O)C=C[C@]4(C)[C@@]3(F)[C@@H](O)C[C@@]21C [TRIAMCINOLONE DIACETATE] | > 133 µM | > 133 µM | > 133 µM | > 133 µM
CCC[C@H](N[C@@H](C)C(=O)N1[C@H](C(=O)O)C[C@@H]2CCCC[C@@H]21)C(=O)OCC [PERINDOPRIL ERBUMINE] | > 133 µM | > 133 µM | > 133 µM | > 133 µM
O=C(Cn1ccnc1[N+](=O)[O-])NCc1ccccc1 [BENZNIDAZOLE] | > 133 µM | > 133 µM | > 133 µM | > 133 µM
CC(C)N(CCC(C(N)=O)(c1ccccc1)c1ccccn1)C(C)C (centres undefined) [DISOPYRAMIDE] | > 133 µM | > 133 µM | > 133 µM | > 133 µM
NC(=O)N1c2ccccc2CC(=O)c2ccccc21 [OXCARBAZEPINE] | > 133 µM | > 133 µM | > 133 µM | > 133 µM
CCN(CC)CCOc1ccc2c(c1)C(=O)c1cc(OCCN(CC)CC)ccc1-2 [TILORONE] | > 133 µM | > 133 µM | > 133 µM | > 133 µM
O=c1[nH]c2ccccc2n1CCCN1CCC(n2c(=O)[nH]c3cc(Cl)ccc32)CC1 [DOMPERIDONE] | > 133 µM | > 133 µM | > 133 µM | > 133 µM
NS(=O)(=O)c1cc2c(cc1C(F)(F)F)NCNS2(=O)=O [HYDROFLUMETHIAZIDE] | > 133 µM | > 133 µM | > 133 µM | > 133 µM
CC(=O)Nc1ccc(O)cc1 [ACETAMINOPHEN] | > 133 µM | > 133 µM | > 133 µM | > 133 µM
COc1ccccc1OCCNCC(O)COc1cccc2[nH]c3ccccc3c12 (centres undefined) [CARVEDILOL] | > 133 µM | > 133 µM | > 133 µM | > 133 µM
C=CCN1C[C@H](C(=O)N(CCCN(C)C)C(=O)NCC)C[C@@H]2c3cccc4[nH]cc(c34)C[C@H]21 [CABERGOLINE] | > 133 µM | > 133 µM | > 133 µM | > 133 µM
CCOC(=O)c1ncn2c1CN(C)C(=O)c1cc(F)ccc1-2 [FLUMAZENIL] | > 133 µM | > 133 µM | > 133 µM | > 133 µM
Cn1c(=O)c2[nH]cnc2n(C)c1=O [AMINOPHYLLINE] | > 133 µM | > 133 µM | > 133 µM | 131 µM
C=C1[C@H](CO)[C@@H](O)C[C@@H]1n1cnc2c(=O)[nH]c(N)nc21 | > 133 µM | > 133 µM | > 133 µM | > 133 µM
Cc1cccc(N(C)C(=S)Oc2ccc3ccccc3c2)c1 [TOLNAFTATE] | > 133 µM | > 133 µM | > 133 µM | > 133 µM
COC[C@@H](NC(C)=O)C(=O)NCc1ccccc1 [LACOSAMIDE] | > 133 µM | > 133 µM | > 133 µM | > 133 µM
CC(=O)OCC(CCn1cnc2cnc(N)nc21)COC(C)=O [FAMCICLOVIR] | > 133 µM | > 133 µM | > 133 µM | > 133 µM
CNS(=O)(=O)Cc1ccc2[nH]cc(CCN(C)C)c2c1 | > 133 µM | > 133 µM | > 133 µM | > 133 µM
